According to patent US10517889B2, “Modulators of SMAD7 expression” (Ionis Pharmaceuticals, Inc., priority 2017, dated 2019):
Several values for one entry are separate records, joined by “and”; a condition that tells them apart may be missing. Equal entries are not always repeated. Strand notation (5' to 3'): a small letter for the sugar, then the base; units joined by * are phosphorothioate-linked, units joined directly phosphodiester-linked; [ ] holds rarer units or linkages, { } end groups; capitals alone tell only the bases. k = constrained ethyl (cEt); [5mC] = 5-methylcytosine; d = 2'-deoxy (DNA)

Experiments:
[1] = test system: human SMAD7 mRNA; test: Antisense inhibition of human SMAD7 mRNA expression in Hep3B cells by 3-10-3 cEt gapmers, 10,000 nM, electroporation (Example 2); type: cell-based; conditions: approximately 24 hours, primer probe set RTS5062, relative to untreated control cells
Method in brief: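 Hep3B cells (20,000/well) were electroporated with 10,000 nM 3-10-3 cEt gapmer (16-mer, phosphorothioate, 5-methylcytosines) and harvested after about 24 h. SMAD7 mRNA quantified by RT-qPCR with primer probe set RTS5062, normalized to total RNA by RiboGreen; percent inhibition relative to untreated cells.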

[2] = test system: human SMAD7 mRNA; test: Dose-dependent inhibition of human SMAD7 mRNA expression in Hep3B cells (Example 3, Study 1 and 2); type: cell-based; conditions: electroporation; for % inhibition of SMAD7 mRNA expression: approximately 16 hours
Method in brief: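 Hep3B cells, 20,000 per well, electroporated with antisense oligonucleotide at 0.31, 1.25, 5.00 or 20.00 μM (first series) or 0.74, 2.22, 6.67 or 20.00 μM (second series). After ~16 h, SMAD7 mRNA measured by RT-qPCR (RTS5062), normalised to RIBOGREEN total RNA. Percent inhibition vs untreated cells; IC50 derived.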

[3] = Plasma chemistry markers after subcutaneous administration in CD-1 mice (Example 6); type: in vivo; conditions: CD-1 mice plasma at day 46; 50 mg/kg subcutaneously twice a week for 7 weeks
Experimental: CD-1® mice (Charles River, Mass.) are a multipurpose mice model, frequently utilized for safety and efficacy testing. The mice were treated with Ionis human SMAD7 antisense oligonucleotides selected from studies described above and evaluated.
Groups of 8-9 week old male CD-1 mice were injected subcutaneously twice a week for 7 weeks with 50 mg/kg of Ionis oligonucleotides (100 mg/kg/week dose). Each group contained 4 mice. One group of male CD-1 mice was injected subcutaneously twice a week for 7 weeks with PBS. […]

[4] = Organ weights after subcutaneous administration in CD-1 mice (Example 6); type: in vivo; conditions: end of study, 50 mg/kg subcutaneously twice a week for 7 weeks
Experimental: (§1) Groups of 8-9 week old male CD-1 mice were injected subcutaneously twice a week for 7 weeks with 50 mg/kg of Ionis oligonucleotides (100 mg/kg/week dose). Each group contained 4 mice. One group of male CD-1 mice was injected subcutaneously twice a week for 7 weeks with PBS. Plasma was collected for analysis on day 28.
Ionis SMAD7 oligonucleotides that caused any changes in organ weights outside the expected range for antisense oligonucleotides were excluded from further studies.

[5] = Hematology assays after subcutaneous administration in CD-1 mice (Example 6); type: in vivo; parameters: RBC / Eosinophils / Monocytes: unit not given here; conditions: 50 mg/kg subcutaneous twice weekly for 7 weeks
Experimental: as §1
Blood obtained from all mouse groups was measured by an ADVIA2120i hematology analyzer (Siemens, USA) for measurements of the various blood cells, as well as other hematology markers.

[6] = test system: mouse Smad7 mRNA; test: Pharmacology: mouse Smad7 mRNA expression in liver, kidney, duodenum, ileum and colon after subcutaneous administration in CD-1 mice (Example 6); type: in vivo; conditions: 50 mg/kg subcutaneous twice weekly for 7 weeks, normalized to GAPDH
Experimental: as §1
The pharmacological activity of the Ionis oligonucleotides in mice was assessed by measuring mouse Smad7 mRNA expression in liver, kidney, duodenum, ileum, and colon at necropsy.
Tissue samples from all mice were analyzed for Smad7 mRNA expression using the primer probe set HTS7555 (forward sequence […], designated SEQ ID NO: 2737; reverse sequence […], designated SEQ ID NO: 2738; probe sequence […], designated SEQ ID NO: 2739), which was normalized to mRNA levels of the housekeeping gene, GAPDH. One-way ANOVA with Dunnet's comparison test was used for statistical analysis.

[7] = Tissue and organ histopathology after oral gavage in CD-1 mice (Example 7); type: in vivo; conditions: daily oral gavage 500 mg/kg for one month, in words
Experimental: Groups of 7-8 week old male CD-1 mice were given an oral gavage dose once daily for 4 weeks of 500 mg/kg of Ionis SMAD7 oligonucleotides. Each group contained 8 mice. One group of male CD-1 mice was administered saline by oral gavage daily.
Histopathology evaluations were performed on the mice treated with Ionis oligonucleotides to evaluate any tissue damage in the liver (with gallbladder), kidneys, heart, spleen, thymus, mesenteric lymph nodes, and different parts of the GI tract, including duodenum, ileum, and colon (proximal and distal). Tissues were collected and fixed in 10% neutral-buffered formalin, embedded in paraffin, sectioned, and stained with hematoxylin and eosin. All the tissues were histologically unremarkable in all mice.

[8] = test system: mouse Smad7 mRNA; test: Murine Smad7 mRNA expression after subcutaneous administration in BALB/c mice (Example 10); type: in vivo; conditions: 50 mg/kg subcutaneous once a week for 4 weeks, 24 hours after last dose
Experimental: The objective of this study was to evaluate the efficacy of Ionis SMAD7 antisense oligonucleotides compared to ION 736697/Mongersen in BALB/c mice following 4 weeks of treatment. Both ION 830025 and ION 798781 are cross-reactive with mouse Smad7 mRNA.
Groups of BALB/c mice were subcutaneously administered 50 mg/kg of Ionis SMAD7 oligonucleotides once a week for 4 weeks. Each group contained 4 mice. One group of mice was administered PBS once a week for 4 weeks. […]

[9] = test system: human SMAD7 mRNA; test: Dose-dependent inhibition of human SMAD7 mRNA expression in A431 cells, oligonucleotide added without transfection (Example 5, Study 1); type: cell-based; conditions: SMAD7 mRNA, in words
Experimental: The newly designed compounds disclosed herein are cEt-modified antisense oligonucleotides. […] The studies described below show a comparison of select cEt-modified gapmers and ION0736697/Mongersen.
A431 cells were plated in collagen I-coated 96-well plates in DMEM with […]. Immediately after plating, 0.08 μM, 0.25 μM, 0.74 μM, 2.22 μM, 6.67 μM, or 20.00 μM concentrations of antisense oligonucleotide were added. The plates were shaken briefly before incubating at 37° C. and 10% CO2. After a treatment period of approximately 48 hours, the cells were washed and lyzed and RNA on 384-well Pall plates with DNase I treatment. SMAD7 mRNA levels were measured by quantitative real-time PCR. Primer probe set RTS5062 was used to measure human SMAD7 mRNA levels. SMAD7 mRNA levels were adjusted according to total RNA content, as measured by RIBOGREEN®. Results are presented as percent inhibition of SMAD7 mRNA expression, relative to untreated control cells.
All Ionis oligonucleotides had greater potency than ION 736697/Mongersen.

[10] = test system: murine Smad7 mRNA; test: Dose-dependent inhibition of murine Smad7 mRNA in bEND cells, electroporation (Example 5, Study 2); type: cell-based, mouse; conditions: in words
Experimental: Many of the Ionis designed oligonucleotides as well as ION 736697/Mongersen are complementary to mouse Smad7 mRNA. […] After a treatment period of approximately 16 hours, the cells were washed and lyzed and RNA on 384-well Pall plates with DNase I treatment. Smad7 mRNA levels were measured by quantitative real-time PCR. Primer probe set RTS1114 (forward sequence […], designated herein as SEQ ID NO: 8; reverse sequence […], designated herein as SEQ ID NO: 9; probe sequence […], designated herein as SEQ ID NO: 10) was used to measure murine Smad7 mRNA levels. Smad7 mRNA levels were adjusted according to total RNA content, as measured by RIBOGREEN®. Results are presented as percent inhibition of Smad7 mRNA expression, relative to untreated control cells.
Many of the Ionis oligonucleotides had greater potency than ION 736697/Mongersen.

[11] = Pharmacokinetics: oligonucleotide concentration in tissues after oral gavage in beagle dogs (Example 12); type: in vivo
Experimental: There were 4 animals per group.
Canine tissue exposure following oral administration of the Ionis SMAD7 oligonucleotides was measured in various organs and intestinal tissues.
Plasma concentrations of Ionis oligonucleotides were also measured on Day 28 at various time points.

[12] = Organ weights after oral gavage in beagle dogs (Example 12); conditions: 200 mg by oral gavage for 4 weeks, day 30, in words
Experimental: (§2) Groups of 24-25 week old male beagle dogs were administered 200 mg Ionis human SMAD7 oligonucleotide by oral gavage once a week for 4 weeks. There were 4 animals per group. A control group of dogs received oral administration of distilled water. Dogs were sacrificed on day 30 approximately 48 hours after the final dose and organs and plasma were harvested for further analysis.

[13] = Plasma chemistry markers after oral gavage in beagle dogs (Example 12); conditions: 200 mg by oral gavage for 4 weeks, day 30, in words
Experimental: The study was conducted to evaluate the tolerability and pharmacodynamics of select human SMAD7 antisense oligonucleotides in beagle dogs following 4 weeks of treatment. The dogs were administered oligonucleotides by oral gavage.
as §2
To evaluate the effect of Ionis SMAD7 oligonucleotides on liver and kidney function, approximately 1.5 mL of blood samples were collected and put into tubes without anticoagulant for serum separation. The tubes were kept at room temperature for a minimum of 90 min and then centrifuged (approximately 3,000 rpm for 10 min) to obtain serum. Plasma levels of transaminases, albumin, bilirubin, and BUN were measured using an automated clinical chemistry analyzer (Toshiba 200FR Neo chemistry analyzer, Toshiba Co., Japan).

[14] = Plasma chemistry markers after subcutaneous administration in beagle dogs (Example 8); conditions: 30 mg/kg subcutaneously, day 31, in words
Experimental: Groups of 24-25 week old male beagle dogs were injected subcutaneously with 30 mg/kg ION Ionis oligonucleotide. There were 4 animals per group. Dogs were injected every two days for the first week (day 1, 3, and 5) and once weekly thereafter (days 8, 15, 22, and 29). A control group of dogs received subcutaneous injections of PBS. Dogs were sacrificed on day 31 approximately 48 hours after the final dose and organs and plasma were harvested for further analysis.
To evaluate the effect of Ionis SMAD7 oligonucleotides on liver and kidney function, plasma levels of transaminases, albumin, creatine and BUN were measured using an automated clinical chemistry analyzer (Toshiba 200FR Neo chemistry analyzer, Toshiba Co., Japan).

## 799144 (antisense kT*kT*kG*dG*dG*dT*dT*dA*dT*dG*dA*d[5mC]*dG*kG*kA*k[5mC]) [compound 799144]
[1]; Hep3B cells, electroporation with 10,000 nM antisense oligonucleotide
  % inhibition of SMAD7 mRNA expression: 72%
[1]; SMAD7 mRNA, Hep3B cells, 10,000 nM antisense oligonucleotide, electroporation
  % Inhibition: 72%
[2]; 740 nM, Study 2, relative to untreated control cells
  % inhibition of SMAD7 mRNA expression: 32% and 40%
[2]; 2220 nM, Study 2
  % inhibition of SMAD7 mRNA expression: 50% and 57%
[2]; 6670.0 nM, Study 2
  % inhibition of SMAD7 mRNA expression: 67% and 60%
[2]; 20000.0 nM, Study 2
  % inhibition of SMAD7 mRNA expression: 83% and 87%
[2]; Study 2 (740-20000 nM)
  IC50: 2000 nM and 1000 nM
[3]
  ALT: 253 IU/L
  AST: 170 IU/L
  Albumin: 2.7 g/dL
  BUN: 21 mg/dL
[4]
  Organ weights, Kidneys: 0.6 g
  Organ weights, Liver: 2.3 g
  Organ weights, Spleen: 0.1 g
[5]
  Eosinophils: 2.9
  Hematocrit: 43.1%
  Hemoglobin: 14.3 g/dL
  Lymphocytes: 80.7%
  MCH: 15.2 pg
  MCHC: 33.2 g/dL
  MCV: 45.8 fL
  Monocytes: 4.9
  Neutrophils: 11.4%
  RBC: 9.5
  Reticulocytes: 3.3%
  WBC: 6.2 10^3/μL
  platelets: 614.0 10^3/μL
[5]; n.d. = below detection levels
  Basophils: 0.1 10^3/μL
[6]; kidney
  % inhibition of Smad7 mRNA expression (compared to control), Kidney: 3%
[6]; liver
  % inhibition of Smad7 mRNA expression (compared to control), Liver: 0%

## ION 790615: 3-10-3 (S)-cEt gapmer targeting human SMAD7; top lead compound (k[5mC]*k[5mC]*kA*dA*dT*dG*dA*dG*dA*dA*dT*dG*d[5mC]*kT*kT*k[5mC])
[7]
  Histopathology: oligonucleotide-related tissue alterations: not associated with any antisense oligonucleotide-related tissue alterations
[8]
  Mouse Smad7 mRNA expression (% inhibition), Colon: 71 % inhibition
  Mouse Smad7 mRNA expression (% inhibition), Duodenum: 39 % inhibition
  Mouse Smad7 mRNA expression (% inhibition), Ileum: 41 % inhibition
  Mouse Smad7 mRNA expression (% inhibition), Kidney: 28 % inhibition
  Mouse Smad7 mRNA expression (% inhibition), Liver: 47 % inhibition

## ION 798781 (CGTAAGATTCACAGCA; 3-10-3 cEt gapmer, further chemistry not given here)
[9]
  Potency/efficacy compared with ION 736697/Mongersen: more efficacious than ION 736697/Mongersen
[10]
  Potency compared with ION 736697/Mongersen: more potent than ION 736697/Mongersen
[7]
  Histopathology: oligonucleotide-related tissue alterations: not associated with any antisense oligonucleotide-related tissue alterations
[8]
  Mouse Smad7 mRNA expression (% inhibition), Colon: 41 % inhibition
  Mouse Smad7 mRNA expression (% inhibition), Duodenum: 27 % inhibition
  Mouse Smad7 mRNA expression (% inhibition), Ileum: 22 % inhibition
  Mouse Smad7 mRNA expression (% inhibition), Kidney: 11 % inhibition
  Mouse Smad7 mRNA expression (% inhibition), Liver: 36 % inhibition
[11]; 200 mg by oral gavage for 4 weeks, in words
  Tissue accumulation of oligonucleotide: higher accumulation in the liver and kidneys
[11]; 200 mg oral gavage for 4 weeks, duodenum
  Oligonucleotide concentration in tissues, Duodenum: 0.6 µg/g
[11]; 200 mg oral gavage for 4 weeks, ileum
  Oligonucleotide concentration in tissues, Ileum: 0.5 µg/g
[11]; 200 mg oral gavage for 4 weeks, kidney
  Oligonucleotide concentration in tissues, Kidney: 108.1 µg/g
[11]; 200 mg oral gavage for 4 weeks, liver
  Oligonucleotide concentration in tissues, Liver: 12.9 µg/g
[11]; 200 mg oral gavage for 4 weeks, proximal colon
  Oligonucleotide concentration in tissues, Proximal colon: 0.1 µg/g
[12]
  Tolerability (organ weights): very well tolerated
[13]
  Tolerability (plasma chemistry markers): very well tolerated
[14]
  Tolerability (plasma chemistry markers): well tolerated
